Results from patent US10597388B2, “Pyridazinone herbicides” (FMC CORPORATION, priority 2014, dated 2020).

Columns and labels:
Type in all cases: in vivo
[1] = tested on: barnyardgrass (Echinochloa crus-galli); assay: Test A greenhouse herbicide test, pre- and postemergence; settings: for Barnyardgrass plant response rating: 0 is no effect, 100 is complete control
In short: (§1)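 Visual injury ratings, 0 (no effect) to 100 (complete control), versus untreated plants after roughly 10 d in a greenhouse. Compounds, formulated in a surfactant-containing non-phytotoxic solvent, were sprayed on loam–sand soil after sowing (pre) or on one- to two-leaf plants 2–10 cm tall (post).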

corn (Zea mays) = assay: as above; settings: Postemergence; for Corn plant response rating: 1000 g ai/ha, 0 is no effect, 100 is complete control
In short: as §1

[2] = tested on: foxtail, giant (giant foxtail, Setaria faberii); assay: as above; settings: for Foxtail, Giant plant response rating: 0 is no effect, 100 is complete control
In short: as §1

kochia (Kochia scoparia) = assay: as above; settings: for Kochia plant response rating: 0 is no effect, 100 is complete control
In short: as §1

[3] = tested on: pigweed (Amaranthus retroflexus); assay: as above; settings: for Pigweed plant response rating: 0 is no effect, 100 is complete control
In short: as §1

[4] = tested on: ragweed (common ragweed, Ambrosia elatior); assay: as above; settings: for Ragweed plant response rating: 0 is no effect, 100 is complete control
In short: as §1

[5] = tested on: ryegrass, Italian (Italian ryegrass, Lolium multiflorum); assay: as above; settings: for Ryegrass, Italian plant response rating: 0 is no effect, 100 is complete control
In short: as §1

[6] = tested on: wheat (Triticum aestivum); assay: as above; settings: Postemergence; for Wheat plant response rating: 1000 g ai/ha, 0 is no effect, 100 is complete control
In short: as §1

[7] = tested on: blackgrass (Alopecurus myosuroides); assay: Test A greenhouse herbicide test, postemergence; settings: for Blackgrass plant response rating: 1000 g ai/ha, 0 is no effect, 100 is complete control
In short: (§2)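 Scores are visual injury ratings from 0 (no effect) to 100 (complete control) versus untreated plants, taken roughly 10 d after treatment in the greenhouse. Treatment was postemergence, on one- to two-leaf plants 2–10 cm high growing in a loam soil/sand mix.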

[8] = tested on: galium (catchweed bedstraw, Galium aparine); assay: Test A greenhouse herbicide test, postemergence; settings: for Galium plant response rating: 1000 g ai/ha, 0 is no effect, 100 is complete control
In short: as §2

[9] = tested on: barnyardgrass (Echinochloa crus-galli); assay: Test B flooded paddy test; settings: 250 g ai/ha, Flood; visual rating on scale of 0 to 100 where 0 is no effect and 100 is complete control; 13 to 15 d after treatment
In short: (§3)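 Ratings use a 0-100 visual scale, where 100 is complete control, and compare treated plants with controls after 13 to 15 d of greenhouse growth. Compound went straight into paddy water kept 3 cm over the soil surface, applied to seedlings at the 2-leaf stage.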

[10] = tested on: ducksalad (Heteranthera limosa); assay: Test B flooded paddy test; settings: 250 g ai/ha, Flood; visual rating on scale of 0 to 100 where 0 is no effect and 100 is complete control; 13 to 15 d after treatment
In short: as §3

rice (Oryza sativa) = assay: Test B flooded paddy test; settings: 250 g ai/ha, Flood; visual rating on scale of 0 to 100 where 0 is no effect and 100 is complete control; 13 to 15 d after treatment
In short: as §3

[11] = tested on: sedge, umbrella (small-flower umbrella sedge, Cyperus difformis); assay: Test B flooded paddy test; settings: 250 g ai/ha, Flood; visual rating on scale of 0 to 100 where 0 is no effect and 100 is complete control; 13 to 15 d after treatment
In short: as §3

[12] = Postemergence, 125 g ai/ha, 0 to 100 scale, 0 no effect, 100 complete control
[13] = Postemergence, 500 g ai/ha, visual rating after approx. 10 d, 0 to 100 scale (0 no effect, 100 complete control)
[14] = Preemergence, 125 g ai/ha, visual injury rating, 0 to 100 scale (0 no effect, 100 complete control), approx. 10 d
[15] = Preemergence, 500 g ai/ha, 0 to 100 scale where 0 is no effect and 100 is complete control
[16] = 125 g ai/ha, 0 to 100 scale, 0 no effect, 100 complete control
[17] = 500 g ai/ha, visual rating after approx. 10 d, 0 to 100 scale (0 no effect, 100 complete control)
[18] = Postemergence, 1000 g ai/ha, 0 to 100 scale
[19] = Preemergence, 1000 g ai/ha, 0 to 100 scale, 0 no effect, 100 complete control

## Cc1ccc2ccccc2c1-c1c(O)c([N+](=O)[O-])nn(C)c1=O [Compound 177]
[1]; [12]
  Plant response rating, Barnyardgrass: 0
[1]; [13]
  Plant response rating, Barnyardgrass: 0
[1]; [14]
  Plant response rating, Barnyardgrass: 0
[1]; [15]
  Plant response rating, Barnyardgrass: 0
Corn (Zea mays); [16]
  Plant response rating, Corn: 0
Corn (Zea mays); [17]
  Plant response rating, Corn: 0
[2]; [12]
  Plant response rating, Foxtail, Giant: 0
[2]; [13]
  Plant response rating, Foxtail, Giant: 0
[2]; [14]
  Plant response rating, Foxtail, Giant: 0
[2]; [15]
  Plant response rating, Foxtail, Giant: 0
Kochia (Kochia scoparia); [12]
  Plant response rating, Kochia: 0
Kochia (Kochia scoparia); [13]
  Plant response rating, Kochia: 0
Kochia (Kochia scoparia); [14]
  Plant response rating, Kochia: 0
Kochia (Kochia scoparia); [15]
  Plant response rating, Kochia: 0
[3]; [12]
  Plant response rating, Pigweed: 0
[3]; [13]
  Plant response rating, Pigweed: 0
[3]; [14]
  Plant response rating, Pigweed: 0
[3]; [15]
  Plant response rating, Pigweed: 0
[4]; [12]
  Plant response rating, Ragweed: 0
[4]; [13]
  Plant response rating, Ragweed: 0
[4]; [14]
  Plant response rating, Ragweed: 0
[4]; [15]
  Plant response rating, Ragweed: 0
[5]; [12]
  Plant response rating, Ryegrass, Italian: 0
[5]; [13]
  Plant response rating, Ryegrass, Italian: 0
[5]; [14]
  Plant response rating, Ryegrass, Italian: 0
[5]; [15]
  Plant response rating, Ryegrass, Italian: 0
[6]; [16]
  Plant response rating, Wheat: 0
[6]; [17]
  Plant response rating, Wheat: 0
[7]; [16]
  Plant response rating, Blackgrass: 0
[7]; [17]
  Plant response rating, Blackgrass: 0
[8]; [16]
  Plant response rating, Galium: 0
[8]; [17]
  Plant response rating, Galium: 0
[9]
  Plant response rating, Barnyardgrass: 0
[10]
  Plant response rating, Ducksalad: 0
Rice (Oryza sativa)
  Plant response rating, Rice: 0
[11]
  Plant response rating, Sedge, Umbrella: 0

## Cc1nn(C)c(=O)c(-c2cccc3ccccc23)c1OCC=Cc1ccccc1 [Compound 180]
[1]; [18]
  Barnyardgrass plant response rating: 0
[1]; [19]
  Plant response rating, Barnyardgrass: 0
Corn (Zea mays); 0 to 100 scale
  Corn plant response rating: 0
[2]; [18]
  Foxtail, Giant plant response rating: 0
[2]; [19]
  Plant response rating, Foxtail, Giant: 10
Kochia (Kochia scoparia); [18]
  Kochia plant response rating: 40
Kochia (Kochia scoparia); [19]
  Plant response rating, Kochia: 0
[3]; [18]
  Pigweed plant response rating: 50
[3]; [19]
  Plant response rating, Pigweed: 40
[4]; [18]
  Ragweed plant response rating: 0
[4]; [19]
  Plant response rating, Ragweed: 40
[5]; [18]
  Ryegrass, Italian plant response rating: 70
[5]; [19]
  Plant response rating, Ryegrass, Italian: 50
[6]; 0 to 100 scale
  Wheat plant response rating: 0
[7]; 0 to 100 scale
  Blackgrass plant response rating: 30
[8]; 0 to 100 scale
  Galium plant response rating: 80
[9]
  Plant response rating, Barnyardgrass: 0
[10]
  Plant response rating, Ducksalad: 0
Rice (Oryza sativa)
  Plant response rating, Rice: 0
[11]
  Plant response rating, Sedge, Umbrella: 0

## Cc1nn(C)c(=O)c(-c2cccc3ccccc23)c1OC(=O)C=Cc1ccccc1 [Compound 183]
[1]; [18]
  Barnyardgrass plant response rating: 40
[1]; [19]
  Plant response rating, Barnyardgrass: 40
Corn (Zea mays); 0 to 100 scale
  Corn plant response rating: 10
[2]; [18]
  Foxtail, Giant plant response rating: 70
[2]; [19]
  Plant response rating, Foxtail, Giant: 60
Kochia (Kochia scoparia); [18]
  Kochia plant response rating: 90
Kochia (Kochia scoparia); [19]
  Plant response rating, Kochia: 70
[3]; [18]
  Pigweed plant response rating: 90
[3]; [19]
  Plant response rating, Pigweed: 90
[4]; [18]
  Ragweed plant response rating: 70
[4]; [19]
  Plant response rating, Ragweed: 80
[5]; [18]
  Ryegrass, Italian plant response rating: 100
[5]; [19]
  Plant response rating, Ryegrass, Italian: 90
[6]; 0 to 100 scale
  Wheat plant response rating: 0
[7]; 0 to 100 scale
  Blackgrass plant response rating: 80
[8]; 0 to 100 scale
  Galium plant response rating: 90
[9]
  Plant response rating, Barnyardgrass: 0
[10]
  Plant response rating, Ducksalad: 0
Rice (Oryza sativa)
  Plant response rating, Rice: 0
[11]
  Plant response rating, Sedge, Umbrella: 0
